Reference: patent publication US6720346B2, “Thiazole benzamide derivatives and pharmaceutical compositions for inhibiting cell proliferation” (Agouron Pharmaceuticals, Inc., priority 2001, dated 2004)

How the values were obtained:
[1] = target: T1, CDK2/cyclin A (Homo sapiens, UniProt P24941); test: Inhibition of CDK2/cyclin A retinoblastoma kinase activity (Ki; % inhibition); type: biochemical; conditions: for Ki: apparent Ki, CDK2/cyclin A, Rb substrate
T1 construct: made in house; host or cells: CDK2: insect cells (baculovirus); cyclin A: E. coli
Procedure, shortened: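 Apparent Ki values came from fitting concentration-dependent activity data to competitive (or competitive tight-binding) models, and % inhibition from single 30 nM screens of library compounds. Activity was measured as ³²P/³³P incorporation from 25 μM ATP into an Rb substrate by 10 or 19 nM CDK2/delta cyclin A at 30 °C over 60–75 min, pH 7.4.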

[2] = target: T2, human CDK4/cyclin D3 (Homo sapiens, UniProt P11802); test: Inhibition of CDK4/cyclin D retinoblastoma kinase activity (Ki; % inhibition); type: biochemical; conditions: for Ki: apparent Ki, CDK4/cyclin D3, Rb substrate
T2 construct: made in house; host or cells: insect cells co-infected with baculovirus vectors
Procedure, shortened: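 Radiometric filter-binding read-out: Rb residues 386-928 phosphorylated by 5 nM CDK4/cyclin D3(1-264) from baculovirus-infected insect cells, 25 μM ATP, HEPES pH 7.4, 30 °C. Run 20 min, or 60 min for tight-binding inhibitors. Screening at 30 nM theoretical compound; apparent Ki by competitive-inhibition fitting.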

[3] = tested on: HCT-116 cell line; test: Inhibition of cell growth, MTT tetrazolium salt assay; type: cell-based; conditions: for IC50: Homo sapiens, HCT-116, 120 h, MTT, three to five days
Procedure, shortened: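 Growth inhibition was read as MTT-formazan absorbance at 540 nm, after 4 h with 0.2 mg/mL MTT. Before that, HCT-116 cells had been exposed 3–5 days at 37 °C to compounds in 0.5% (v/v) DMSO, added 4 h after plating. 50% and 90% inhibitory concentrations were taken from semi-log concentration–inhibition plots versus vehicle controls.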

[4] = HCT-116 cells, 0.25 μM compound

T2 sequence (P11802 whole entry): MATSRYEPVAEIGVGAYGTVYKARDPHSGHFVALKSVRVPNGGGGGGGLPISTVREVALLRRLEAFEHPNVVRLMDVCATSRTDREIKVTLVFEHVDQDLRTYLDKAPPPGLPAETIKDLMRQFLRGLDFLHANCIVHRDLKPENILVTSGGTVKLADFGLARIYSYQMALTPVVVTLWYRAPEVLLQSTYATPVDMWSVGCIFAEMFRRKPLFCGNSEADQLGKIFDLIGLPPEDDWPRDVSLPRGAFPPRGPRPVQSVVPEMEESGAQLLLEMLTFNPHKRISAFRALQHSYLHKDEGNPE
T2 sequence (P30281 1-264 partner limits assumed): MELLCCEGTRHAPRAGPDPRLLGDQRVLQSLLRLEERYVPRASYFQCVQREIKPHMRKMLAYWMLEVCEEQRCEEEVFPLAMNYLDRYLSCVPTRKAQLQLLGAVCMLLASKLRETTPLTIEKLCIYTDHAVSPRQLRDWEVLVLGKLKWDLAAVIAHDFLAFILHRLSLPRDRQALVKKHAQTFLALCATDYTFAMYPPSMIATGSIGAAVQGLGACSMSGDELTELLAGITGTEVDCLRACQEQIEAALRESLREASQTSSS

Structure (SMILES): CCOC(=O)/C=C/c1ccc(NC(=O)c2ccc(Nc3nc(N)c(C(=O)c4c(F)cccc4F)s3)cc2)cc1 [Example G114]
- CDK2 % Inhibition at 0.03 μM ([1]; at 0.03 μM): −3%
- CDK4 % Inhibition at 0.03 μM ([2]; at 0.03 μM): 11%
- HCT-116 % Inhibition at 0.1 μM ([3]; HCT-116, at 0.1 μM): 0%
- HCT-116 % Inhibition at 0.25 μM ([3]; HCT-116, at 0.25 μM): 48%

Structure (SMILES): Nc1nc(Nc2ccc(C(=O)NCc3ccc(Cl)cc3)cc2)sc1C(=O)c1c(F)cccc1F [Example G258]
- CDK2 % Inhibition at 0.03 μM ([1]; 0.03 μM compound): 25%
- CDK4 % Inhibition at 0.03 μM ([2]; 0.03 μM compound): 20%
- HCT-116 % Inhibition at 0.1 μM ([3]; HCT-116 cells, 0.1 μM compound): 41%
- HCT-116 % Inhibition at 0.25 μM [3, 4]: 84%

Structure (SMILES): CCOCCNC(=O)c1ccc(Nc2nc(N)c(C(=O)c3c(F)cccc3F)s2)cc1 [Example G136]
- CDK2 % Inhibition at 0.03 μM ([1]; at 0.03 μM): −4%
- CDK4 % Inhibition at 0.03 μM ([2]; at 0.03 μM): 12%
- HCT-116 % Inhibition at 0.1 μM ([3]; HCT-116, at 0.1 μM): 0%
- HCT-116 % Inhibition at 0.25 μM ([3]; HCT-116, at 0.25 μM): 49%

Structure (SMILES): CCCN(CCO)C(=O)c1ccc(Nc2nc(N)c(C(=O)c3c(F)cccc3F)s2)cc1 [Example G233]
- CDK2 % Inhibition at 0.03 μM ([1]; 0.03 μM compound): 10%
- CDK4 % Inhibition at 0.03 μM ([2]; 0.03 μM compound): 21%
- HCT-116 % Inhibition at 0.1 μM ([3]; HCT-116 cells, 0.1 μM compound): 16%
- HCT-116 % Inhibition at 0.25 μM [3, 4]: 48%

Structure (SMILES): CC(=O)N(C)C1CCN(C(=O)c2ccc(Nc3nc(N)c(C(=O)c4c(F)cccc4F)s3)cc2)C1 (centres unmarked) [Example G348]
- CDK2 % Inhibition at 0.03 μM ([1]; 0.03 μM compound): −21%
- CDK4 % Inhibition at 0.03 μM ([2]; 0.03 μM compound): 14%
- HCT-116 % Inhibition at 0.1 μM ([3]; HCT-116 cells, 0.1 μM compound): 23%
- HCT-116 % Inhibition at 0.25 μM [3, 4]: 51%

Structure (SMILES): Nc1nc(Nc2ccc(C(=O)NCCCN3CCCC3)cc2)sc1C(=O)c1c(F)cccc1F [Example G158]
- CDK2 % Inhibition at 0.03 μM ([1]; at 0.03 μM): 22%
- CDK4 % Inhibition at 0.03 μM ([2]; at 0.03 μM): 40%
- HCT-116 % Inhibition at 0.1 μM ([3]; HCT-116, at 0.1 μM): 0%
- HCT-116 % Inhibition at 0.25 μM ([3]; HCT-116, at 0.25 μM): 73%

Structure (SMILES): CN(C)C1(CNC(=O)c2ccc(Nc3nc(N)c(C(=O)c4c(F)cccc4F)s3)cc2)CCCC1 [Example A77, 4-{[4-Amino-5-(2,6-difluorobenzoyl)-1,3-thiazol-2-yl]amino}-N-{[1-(dimethylamino)cyclopentyl]methyl}benzamide]
- Ki [1]: 84 nM
- Ki [2]: 5.2 nM
- IC50 [3]: 120 nM

Structure (SMILES): Nc1nc(Nc2ccc(C(=O)NCc3cccc(F)c3)cc2)sc1C(=O)c1c(F)cccc1F [Example G252]
- CDK2 % Inhibition at 0.03 μM ([1]; 0.03 μM compound): 29%
- CDK4 % Inhibition at 0.03 μM ([2]; 0.03 μM compound): 31%
- HCT-116 % Inhibition at 0.1 μM ([3]; HCT-116 cells, 0.1 μM compound): 33%
- HCT-116 % Inhibition at 0.25 μM [3, 4]: 67%

Structure (SMILES): COc1cc(NC(=O)c2ccc(Nc3nc(N)c(C(=O)c4c(F)cccc4F)s3)cc2)ccc1C [Example G138]
- CDK2 % Inhibition at 0.03 μM ([1]; at 0.03 μM): 7%
- CDK4 % Inhibition at 0.03 μM ([2]; at 0.03 μM): 17%
- HCT-116 % Inhibition at 0.1 μM ([3]; HCT-116, at 0.1 μM): 0%
- HCT-116 % Inhibition at 0.25 μM ([3]; HCT-116, at 0.25 μM): 65%

Structure (SMILES): CC(=O)Nc1ccc(NC(=O)c2ccc(Nc3nc(N)c(C(=O)c4c(F)cccc4F)s3)cc2)cc1 [Example G66]
- CDK2 % Inhibition at 0.03 μM ([1]; at 0.03 μM): 26%
- CDK4 % Inhibition at 0.03 μM ([2]; at 0.03 μM): 14%
- HCT-116 % Inhibition at 0.25 μM ([3]; HCT-116, at 0.25 μM): 60%

Structure (SMILES): COC(=O)[C@H](C(C)C)N(C)C(=O)c1ccc(Nc2nc(N)c(C(=O)c3c(F)cccc3F)s2)cc1 [Example G77]
- CDK2 % Inhibition at 0.03 μM ([1]; at 0.03 μM): 9%
- CDK4 % Inhibition at 0.03 μM ([2]; at 0.03 μM): 6%
- HCT-116 % Inhibition at 0.25 μM ([3]; HCT-116, at 0.25 μM): 51%

Structure (SMILES): Nc1nc(Nc2ccc(C(=O)N[C@@H]3CCN(Cc4ccccc4)C3)cc2)sc1C(=O)c1c(F)cccc1F [Example C365]
- CDK2 % Inhibition at 0.03 μM ([1]; 0.03 μM compound): 8%
- CDK4 % Inhibition at 0.03 μM ([2]; 0.03 μM compound): 22%
- HCT-116 % Inhibition at 0.1 μM ([3]; HCT-116 cells, 0.1 μM compound): 34%
- HCT-116 % Inhibition at 0.25 μM [3, 4]: 93%

Structure (SMILES): N#CCCN(Cc1cccnc1)C(=O)c1ccc(Nc2nc(N)c(C(=O)c3c(F)cccc3F)s2)cc1 [Example G316]
- CDK2 % Inhibition at 0.03 μM ([1]; 0.03 μM compound): −2%
- CDK4 % Inhibition at 0.03 μM ([2]; 0.03 μM compound): 11%
- HCT-116 % Inhibition at 0.1 μM ([3]; HCT-116 cells, 0.1 μM compound): 1%
- HCT-116 % Inhibition at 0.25 μM [3, 4]: 56%

Structure (SMILES): CCN(CCc1ccccn1)C(=O)c1ccc(Nc2nc(N)c(C(=O)c3c(F)cccc3F)s2)cc1 [Example G251]
- CDK2 % Inhibition at 0.03 μM ([1]; 0.03 μM compound): 10%
- CDK4 % Inhibition at 0.03 μM ([2]; 0.03 μM compound): 11%
- HCT-116 % Inhibition at 0.1 μM ([3]; HCT-116 cells, 0.1 μM compound): 16%
- HCT-116 % Inhibition at 0.25 μM [3, 4]: 48%

Structure (SMILES): CN(C)CCCCCCNC(=O)c1ccc(Nc2nc(N)c(C(=O)c3c(F)cccc3F)s2)cc1 [Example G99]
- CDK2 % Inhibition at 0.03 μM ([1]; at 0.03 μM): −16%
- CDK4 % Inhibition at 0.03 μM ([2]; at 0.03 μM): 23%
- HCT-116 % Inhibition at 0.1 μM ([3]; HCT-116, at 0.1 μM): 24%
- HCT-116 % Inhibition at 0.25 μM ([3]; HCT-116, at 0.25 μM): 62%

Structure (SMILES): Nc1nc(Nc2ccc(C(=O)NCCc3cccnc3)cc2)sc1C(=O)c1c(F)cccc1F [Example G343]
- CDK2 % Inhibition at 0.03 μM ([1]; 0.03 μM compound): 1%
- CDK4 % Inhibition at 0.03 μM ([2]; 0.03 μM compound): 12%
- HCT-116 % Inhibition at 0.1 μM ([3]; HCT-116 cells, 0.1 μM compound): 27%
- HCT-116 % Inhibition at 0.25 μM [3, 4]: 71%

Structure (SMILES): CC(=O)Nc1ccccc1C(=O)c1sc(Nc2ccc(C(=O)NC[C@@H]3CCCN3C)cc2)nc1N [Example A72, 4-{5-(2-Acetylamino-benzoyl)-4-amino-thiazol-2-ylamino}-N-(1-methyl-pyrrolidin-2S-ylmethyl)-benzamide]
- inhibition at 1 µM [1]: 0%
- inhibition at 1 µM [2]: 0%
- IC50 [3]: > 500 nM

Structure (SMILES): CCN1CC(NC(=O)c2ccc(Nc3nc(N)c(C(=O)c4c(F)cccc4F)s3)cc2)CN1CC [Example G150]
- CDK2 % Inhibition at 0.03 μM ([1]; at 0.03 μM): 15%
- CDK4 % Inhibition at 0.03 μM ([2]; at 0.03 μM): 25%
- HCT-116 % Inhibition at 0.1 μM ([3]; HCT-116, at 0.1 μM): 0%
- HCT-116 % Inhibition at 0.25 μM ([3]; HCT-116, at 0.25 μM): 57%

Structure (SMILES): N#CCCN(CC1CCCO1)C(=O)c1ccc(Nc2nc(N)c(C(=O)c3c(F)cccc3F)s2)cc1 (centres unmarked) [Example G179]
- CDK2 % Inhibition at 0.03 μM ([1]; at 0.03 μM): −5%
- CDK4 % Inhibition at 0.03 μM ([2]; at 0.03 μM): 10%
- HCT-116 % Inhibition at 0.1 μM ([3]; HCT-116, at 0.1 μM): 21%
- HCT-116 % Inhibition at 0.25 μM ([3]; HCT-116, at 0.25 μM): 42%

Structure (SMILES): CN(C)CCNC(=O)c1ccc(Nc2nc(N)c(C(=O)c3c(F)cccc3F)s2)cc1Cl [C]
- Ki [1]: 170 nM
- Ki [2]: 27 nM
- IC50 [3]: 210 nM

Structure (SMILES): CCN1CCC[C@H]1CNC(=O)c1ccc(Nc2nc(N)c(C(=O)c3c(F)cccc3F)s2)cc1 [Example A38, 4-[4-Amino-5-(2,6-difluoro-benzoyl)-thiazol-2-ylamino]-N-(1-ethyl-pyrrolidin-2S-yl-methyl)-benzamide]
- Ki [1]: 140 nM
- Ki [2]: 24 nM
- IC50 [3]: 100 nM

Structure (SMILES): CC(=O)c1cccc(NC(=O)c2ccc(Nc3nc(N)c(C(=O)c4c(F)cccc4F)s3)cc2)c1 [Example G189]
- CDK2 % Inhibition at 0.03 μM ([1]; at 0.03 μM): 10%
- CDK4 % Inhibition at 0.03 μM ([2]; at 0.03 μM): 18%
- HCT-116 % Inhibition at 0.1 μM ([3]; HCT-116, at 0.1 μM): 13%
- HCT-116 % Inhibition at 0.25 μM ([3]; HCT-116, at 0.25 μM): 56%

Structure (SMILES): Nc1nc(Nc2ccc(C(=O)NC3CCCC3)cc2)sc1C(=O)c1c(F)cccc1F [Example G131]
- CDK2 % Inhibition at 0.03 μM ([1]; at 0.03 μM): 6%
- CDK4 % Inhibition at 0.03 μM ([2]; at 0.03 μM): 16%
- HCT-116 % Inhibition at 0.1 μM ([3]; HCT-116, at 0.1 μM): 0%
- HCT-116 % Inhibition at 0.25 μM ([3]; HCT-116, at 0.25 μM): 58%
